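Values below derive from 48-hour exposures of cells grown in 96-well plates, with endpoints linearly interpolated between the two concentrations bracketing the appropriate inhibition level. The concentration for 50% growth inhibition is given as GI50.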 The source made the active and inactive calls. No stated cut-off is given here; in the data, active = GI50 up to about 1.1 µM and inactive = higher.
Assays:
Assay in all cases: NCI anticancer screen, dose series, 48 h
OVCAR-5 = system: OVCAR-5
BT-549 = system: BT-549
SF-268 = system: SF-268
EKVX = system: EKVX
MDA-N = system: MDA-N
A498 = system: A498
SK-OV-3 = system: SK-OV-3
SNB-75 = system: SNB-75
U-251 = system: U-251
ACHN = system: ACHN
786-0 = system: 786-0
MDA-MB-435 = system: MDA-MB-435
MCF7 = system: MCF7
CCRF-CEM = system: CCRF-CEM
SK-MEL-5 = system: SK-MEL-5
M14 = system: M14
NCI-H226 = system: NCI-H226
DU-145 = system: DU-145
OVCAR-3 = system: OVCAR-3
T47D = system: T47D

Structure (SMILES): CN1COCc2cc3cc4c(cc3nc21)OCCO4
- GI50 (OVCAR-5): > 100 µM (inactive)
- GI50 (BT-549): 87.3 µM (inactive)
- GI50 (SF-268): > 100 µM (inactive)
- GI50 (EKVX): > 100 µM (inactive)
- GI50 (MDA-N): > 100 µM (inactive)
- GI50 (A498): > 100 µM (inactive)
- GI50 (SK-OV-3): > 100 µM (inactive)
- GI50 (SNB-75): > 100 µM (inactive)
- GI50 (U-251): > 100 µM (inactive)
- GI50 (ACHN): > 100 µM (inactive)
- GI50 (786-0): > 100 µM (inactive)
- GI50 (MDA-MB-435): > 100 µM (inactive)
- GI50 (MCF7): 21.2 µM (inactive)
- GI50 (CCRF-CEM): 81.7 µM (inactive)
- GI50 (SK-MEL-5): 39.5 µM (inactive)
- GI50 (M14): > 100 µM (inactive)
- GI50 (NCI-H226): > 100 µM (inactive)

Structure (SMILES): CC(C)c1ccc2nc3ccc(C(=O)NCCN4CCN(c5ccccc5)CC4)cn3c(=O)c2c1
- GI50 (DU-145): > 100 µM (inactive)
- GI50 (OVCAR-5): > 100 µM (inactive)
- GI50 (BT-549): 6.3 µM (inactive)
- GI50 (OVCAR-3): > 100 µM (inactive)
- GI50 (SF-268): > 100 µM (inactive)
- GI50 (EKVX): > 100 µM (inactive)
- GI50 (MDA-N): 4.6 µM (inactive)
- GI50 (A498): 29.9 µM (inactive)
- GI50 (SK-OV-3): > 100 µM (inactive)
- GI50 (SNB-75): 1.89 µM (inactive)
- GI50 (U-251): > 100 µM (inactive)
- GI50 (786-0): 3.21 µM (inactive)
- GI50 (MCF7): 10 µM (inactive)
- GI50 (CCRF-CEM): 2.24 µM (inactive)
- GI50 (SK-MEL-5): 2.58 µM (inactive)
- GI50 (M14): 2.87 µM (inactive)
- GI50 (NCI-H226): > 100 µM (inactive)

Structure (SMILES): O=C(OCc1ccccc1)N1CCCc2c(n(S(=O)(=O)c3ccccc3)c3ccccc23)C1
- GI50 (DU-145): > 100 µM (inactive)
- GI50 (OVCAR-5): > 100 µM (inactive)
- GI50 (BT-549): > 100 µM (inactive)
- GI50 (OVCAR-3): > 100 µM (inactive)
- GI50 (SF-268): > 100 µM (inactive)
- GI50 (EKVX): > 100 µM (inactive)
- GI50 (MDA-N): > 100 µM (inactive)
- GI50 (A498): > 100 µM (inactive)
- GI50 (SK-OV-3): > 100 µM (inactive)
- GI50 (T47D): 14.2 µM (inactive)
- GI50 (U-251): > 100 µM (inactive)
- GI50 (ACHN): > 100 µM (inactive)
- GI50 (786-0): > 100 µM (inactive)
- GI50 (MCF7): > 100 µM (inactive)
- GI50 (SK-MEL-5): > 100 µM (inactive)
- GI50 (M14): > 100 µM (inactive)
- GI50 (NCI-H226): > 100 µM (inactive)

Structure (SMILES): Cc1cccc2nc3n(c12)C(=O)c1ccccc1-3
- GI50 (DU-145): 44.4 µM (inactive)
- GI50 (OVCAR-5): > 100 µM (inactive)
- GI50 (BT-549): > 100 µM (inactive)
- GI50 (OVCAR-3): > 100 µM (inactive)
- GI50 (SF-268): > 100 µM (inactive)
- GI50 (EKVX): 91.4 µM (inactive)
- GI50 (MDA-N): 43.2 µM (inactive)
- GI50 (SK-OV-3): > 100 µM (inactive)
- GI50 (SNB-75): > 100 µM (inactive)
- GI50 (U-251): > 100 µM (inactive)
- GI50 (ACHN): > 100 µM (inactive)
- GI50 (786-0): > 100 µM (inactive)
- GI50 (MCF7): > 100 µM (inactive)
- GI50 (CCRF-CEM): > 100 µM (inactive)
- GI50 (NCI-H226): > 100 µM (inactive)

Structure (SMILES): CC(=O)C1C(=O)C(=O)N(c2ccc([N+](=O)[O-])cc2)C1=O (configuration not stated)
- GI50 (DU-145): > 100 µM (inactive)
- GI50 (OVCAR-5): > 100 µM (inactive)
- GI50 (BT-549): > 100 µM (inactive)
- GI50 (OVCAR-3): > 100 µM (inactive)
- GI50 (SF-268): > 100 µM (inactive)
- GI50 (EKVX): > 100 µM (inactive)
- GI50 (MDA-N): > 100 µM (inactive)
- GI50 (SK-OV-3): > 100 µM (inactive)
- GI50 (SNB-75): > 100 µM (inactive)
- GI50 (U-251): > 100 µM (inactive)
- GI50 (ACHN): > 100 µM (inactive)
- GI50 (786-0): > 100 µM (inactive)
- GI50 (MDA-MB-435): > 100 µM (inactive)
- GI50 (MCF7): > 100 µM (inactive)
- GI50 (CCRF-CEM): > 100 µM (inactive)
- GI50 (SK-MEL-5): > 100 µM (inactive)
- GI50 (M14): > 100 µM (inactive)
- GI50 (NCI-H226): > 100 µM (inactive)

Structure (SMILES): O=C(NCCCCNCCCNC(=O)C(F)(F)F)C(F)(F)F
- GI50 (DU-145): > 100 µM (inactive)
- GI50 (OVCAR-5): > 100 µM (inactive)
- GI50 (BT-549): > 100 µM (inactive)
- GI50 (OVCAR-3): > 100 µM (inactive)
- GI50 (SF-268): > 100 µM (inactive)
- GI50 (EKVX): > 100 µM (inactive)
- GI50 (A498): > 100 µM (inactive)
- GI50 (SK-OV-3): 26.8 µM (inactive)
- GI50 (SNB-75): > 100 µM (inactive)
- GI50 (T47D): > 100 µM (inactive)
- GI50 (U-251): > 100 µM (inactive)
- GI50 (ACHN): > 100 µM (inactive)
- GI50 (786-0): > 100 µM (inactive)
- GI50 (MDA-MB-435): > 100 µM (inactive)
- GI50 (MCF7): > 100 µM (inactive)
- GI50 (CCRF-CEM): > 100 µM (inactive)
- GI50 (SK-MEL-5): > 100 µM (inactive)
- GI50 (M14): > 100 µM (inactive)
- GI50 (NCI-H226): > 100 µM (inactive)

Structure (SMILES): Cc1cc(NN)nc2[nH]nc(N)c12
- GI50 (DU-145): > 100 µM (inactive)
- GI50 (OVCAR-5): > 100 µM (inactive)
- GI50 (BT-549): > 100 µM (inactive)
- GI50 (OVCAR-3): > 100 µM (inactive)
- GI50 (SF-268): > 100 µM (inactive)
- GI50 (EKVX): > 100 µM (inactive)
- GI50 (A498): > 100 µM (inactive)
- GI50 (SK-OV-3): > 100 µM (inactive)
- GI50 (SNB-75): > 100 µM (inactive)
- GI50 (T47D): > 100 µM (inactive)
- GI50 (U-251): > 100 µM (inactive)
- GI50 (ACHN): > 100 µM (inactive)
- GI50 (786-0): > 100 µM (inactive)
- GI50 (MDA-MB-435): 93.1 µM (inactive)
- GI50 (MCF7): > 100 µM (inactive)
- GI50 (CCRF-CEM): > 100 µM (inactive)
- GI50 (SK-MEL-5): > 100 µM (inactive)
- GI50 (M14): > 100 µM (inactive)
- GI50 (NCI-H226): > 100 µM (inactive)

Structure (SMILES): CCOc1cc2c(=O)oc3c(OC)ccc4ccc(c1OC)c2c43
- GI50 (DU-145): > 100 µM (inactive)
- GI50 (OVCAR-5): > 100 µM (inactive)
- GI50 (OVCAR-3): > 100 µM (inactive)
- GI50 (SF-268): > 100 µM (inactive)
- GI50 (EKVX): > 100 µM (inactive)
- GI50 (MDA-N): > 100 µM (inactive)
- GI50 (A498): > 100 µM (inactive)
- GI50 (SK-OV-3): 25.1 µM (inactive)
- GI50 (SNB-75): 64.3 µM (inactive)
- GI50 (T47D): > 100 µM (inactive)
- GI50 (U-251): 34.5 µM (inactive)
- GI50 (ACHN): 37.4 µM (inactive)
- GI50 (786-0): 36.5 µM (inactive)
- GI50 (MDA-MB-435): > 100 µM (inactive)
- GI50 (MCF7): > 100 µM (inactive)
- GI50 (CCRF-CEM): > 100 µM (inactive)
- GI50 (SK-MEL-5): > 100 µM (inactive)
- GI50 (M14): 45.3 µM (inactive)
- GI50 (NCI-H226): 60 µM (inactive)

Structure (SMILES): C/C(=N/NC(=S)N1CCCC1)c1cccc(/C(C)=N\NC(=S)N2CCCC2)n1
- GI50 (DU-145): 2.61 µM (inactive)
- GI50 (OVCAR-5): 1.7 µM (inactive)
- GI50 (BT-549): 2.23 µM (inactive)
- GI50 (OVCAR-3): 0.0973 µM (active)
- GI50 (SF-268): 1.68 µM (inactive)
- GI50 (EKVX): 0.152 µM (active)
- GI50 (MDA-N): 1.38 µM (inactive)
- GI50 (A498): 1.29 µM (inactive)
- GI50 (SK-OV-3): 1.46 µM (inactive)
- GI50 (SNB-75): 1.21 µM (inactive)
- GI50 (U-251): 1.5 µM (inactive)
- GI50 (ACHN): 0.791 µM (active)
- GI50 (786-0): 1.37 µM (inactive)
- GI50 (MDA-MB-435): 1.43 µM (inactive)
- GI50 (CCRF-CEM): 0.0667 µM (active)
- GI50 (SK-MEL-5): 1.36 µM (inactive)
- GI50 (M14): 1.25 µM (inactive)
- GI50 (NCI-H226): 1.62 µM (inactive)

Structure (SMILES): Cc1cc2c3c(ccc4[nH]cc(c43)CN2c2ccc(NS(C)(=O)=O)cc2)n1
- GI50 (DU-145): 49.1 µM (inactive)
- GI50 (OVCAR-5): > 100 µM (inactive)
- GI50 (BT-549): 35.5 µM (inactive)
- GI50 (OVCAR-3): 21.2 µM (inactive)
- GI50 (SF-268): 3.28 µM (inactive)
- GI50 (EKVX): 26.8 µM (inactive)
- GI50 (MDA-N): > 100 µM (inactive)
- GI50 (A498): 41.4 µM (inactive)
- GI50 (SK-OV-3): 32.3 µM (inactive)
- GI50 (SNB-75): 16.9 µM (inactive)
- GI50 (U-251): 22.5 µM (inactive)
- GI50 (ACHN): 70.3 µM (inactive)
- GI50 (786-0): 11.4 µM (inactive)
- GI50 (MDA-MB-435): > 100 µM (inactive)
- GI50 (MCF7): 65 µM (inactive)
- GI50 (CCRF-CEM): 8.41 µM (inactive)
- GI50 (SK-MEL-5): > 100 µM (inactive)
- GI50 (M14): > 100 µM (inactive)
- GI50 (NCI-H226): 28.3 µM (inactive)

Structure (SMILES): Clc1c(C(Cl)(Cl)Cl)nsc1N1CCCCC1
- GI50 (DU-145): 28.4 µM (inactive)
- GI50 (OVCAR-5): 33.7 µM (inactive)
- GI50 (BT-549): 18.3 µM (inactive)
- GI50 (OVCAR-3): 20.8 µM (inactive)
- GI50 (SF-268): 34 µM (inactive)
- GI50 (EKVX): 29.9 µM (inactive)
- GI50 (MDA-N): 31 µM (inactive)
- GI50 (A498): 20 µM (inactive)
- GI50 (SK-OV-3): 27.9 µM (inactive)
- GI50 (SNB-75): 29 µM (inactive)
- GI50 (U-251): 23.5 µM (inactive)
- GI50 (ACHN): 29.8 µM (inactive)
- GI50 (786-0): 17.9 µM (inactive)
- GI50 (MDA-MB-435): 20.9 µM (inactive)
- GI50 (MCF7): 26.1 µM (inactive)
- GI50 (CCRF-CEM): 16.5 µM (inactive)
- GI50 (SK-MEL-5): 16 µM (inactive)
- GI50 (M14): 21 µM (inactive)
- GI50 (NCI-H226): 15.1 µM (inactive)
